Reference: publication PMC7118123, “Evidence for functional selectivity in TUDC- and norUDCA-induced signal transduction via α5β1 integrin towards choleresis” (Scientific Reports, 2020)

Molecular target: T1, α5β1 integrin (Homo sapiens, UniProt P05556+P08648)
T1 construct: gene ITGA5; soluble human α5β1-integrin (R&D); with integrin α5 (ITGA5, P08648)
Assay: competitive ELISA-like solid-phase binding assay against immobilized fibronectin

IC50 | Structure (SMILES)
4.01 mM | C[C@H](CCC(=O)NCCS(=O)(=O)O)[C@H]1CC[C@H]2[C@@H]3[C@@H](O)C[C@@H]4C[C@H](O)CC[C@]4(C)[C@H]3CC[C@]12C [TUDC]
3.93 mM | C[C@H](CC(=O)O)[C@H]1CC[C@H]2[C@@H]3C(O)C[C@@H]4C[C@H](O)CC[C@]4(C)[C@H]3CC[C@]12C (some centres unmarked) [norUDCA]
